Results published in PubChem BioAssay AID2060354 (Molecular Pharmacology Branch, DTP, NCI, 2025).

Tested on: 519858-162-T-J1-PDC spheroid growth inhibition
Test: Anticancer human tumor 519858-162-T-J1-PDC patient-derived colon adenocarcinoma cell line growth inhibition [TAK]
Details: spheroids with HUVEC and MSC; for IC50: curve of first compound; for viability, T/C: stronger effect = lower value
Text: Combinatorial screen of targeted agents with TAK-243 and ipatasertib in multi-cell type tumor spheroids
A high-throughput screen of multi-cell type tumor spheroids was designed to identify active combinations of targeted small molecules and TAK-243 or ipatasertib. Complex spheroids include a stromal component modeled by human endothelial cells (HUVEC) and fibroblasts modeled by human mesenchymal stem cells (MSCs). The concentration ranges selected for each drug and investigational agent were based upon clinically achievable concentrations if the clinical Cmax of the agent was known.
Compounds. The drugs and investigational agents: TAK-243 (785004), ipatasertib (767898), everolimus (733504), selumetinib (741078), bortezomib (756655), trametinib (758246), ixazomib (758254), vemurafenib (761431), dabrafenib (764134), sapanisertib (764658), alpelisib (765974), and copanlisib (816437), were obtained from the National Cancer Institute (NCI) Developmental Therapeutics Program Chemical Repository. The FDA-approved anticancer drug set is available from the NCI Developmental Therapeutics Program. […] The stock solutions were prepared in dimethyl sulfoxide (DMSO, Sigma-Aldrich, St. Louis, MO, cat. D2650) at 800-fold the tested concentration and stored at -70 degrees C prior to their use. All drugs and investigational agents were tested over a range starting from a high concentration at or near the clinical Cmax and decreasing in half-log increments. If the clinical Cmax for an agent had not been determined, the highest concentration tested was 10 microM.
NCI60 Cell Culture. NCI60 cell lines were obtained from the NCI Developmental Therapeutics Program Tumor Repository. For each lot of cells, the Repository performed Applied Biosystems AmpFLSTR Identifiler testing with PCR amplification to confirm consistency with the published Identifier STR profile for each cell line. Cells were kept in continuous culture for no more than 20 passages. The optimal seeding densities for each of the cell lines at each time point assessed were determined prior to performing the concentration response studies. Briefly, the NCI60 human tumor lines were grown as monolayers in RPMI 1640 medium supplemented with 10% FBS and 2 mmol/L L-glutamine.
An additional 2 lines were from the NCI60 cell line panel including melanomas, MALME-3M and SK-MEL-2. Pooled donor human umbilical vein endothelial cells (HUVEC, Lonza, cat. CC-2519) and human mesenchymal stem cells (hMSC, Lonza, cat. PT-2501) were purchased from Lonza (Walkersville, MD).
PDMR cell lines were grown in complete medium (DC medium): Dulbecco's modified Eagle's medium (DMEM)/F12 supplemented with 5% fetal bovine serum (FBS), 2 mM L-glutamine, 100 U/mL penicillin and 100 µg/ml streptomycin, 0.4 µg/ml hydrocortisone, 10 ng/ml epidermal growth factor (EGF) recombinant human protein, 24 µg/mL adenine, and 0.1 mg/mL primocin. During culture from frozen stock vials, PDMR cells were cultured in the same medium containing 10 µM Y-27632 (see Table 3). The PDCs were cultured in complete DMEM/F12 media without 10 microM Y-27632 dihydrochloride for at least two passages prior to the screen. The pooled donor HUVEC and hMSC were cultured in endothelial cell growth medium 2 (PromoCell, Heidelberg, Germany, cat. C-22011) and mesenchymal stem cell growth medium 2 (PromoCell, cat. C-28009), respectively. For all experiments, HUVEC and hMSC were used at passages </=5.
For the pre-screen, cell seeding densities were determined from a titration spanning the range from 5,000 to 313 cells per well. The mct-spheroids including 60% malignant cells, 25% HUVEC and 15% MSC dispensed as a mixture into U-bottom Ultra-Low Attachment 384-well plates (Corning, NY)
High-throughput Drug Combination Screening.
Prior to their inoculation into 384-well plates, malignant cells, HUVEC, and hMSC were removed from T flasks using TrypLE express (Thermo Fisher Scientific, cat. 12605036) and harvested by centrifugation for 5 min at 233 x g. […]
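Also: spheroids exposed to drugs for 7 days.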

Cn1cnc2c(F)c(Nc3ccc(Br)cc3Cl)c(C(=O)NOCCO)cc21 + CC(C)NCC(C(=O)N1CCN(c2ncnc3c2C(C)CC3O)CC1)c1ccc(Cl)cc1
IC50 (second compound 0.3 µM): 0.0775 µM
IC50 (second compound 0.949 µM): 0.0687 µM
IC50 (second compound 3 µM): 0.0954 µM
IC50 (second compound 9.49 µM): 0.139 µM
IC50 (second compound 30 µM): 0.162 µM
viability, T/C (second compound 0.3 µM, first compound 0.00949 µM): 80.3%
viability, T/C (second compound 0.3 µM, first compound 0.03 µM): 62.7%
viability, T/C (second compound 0.3 µM, first compound 0.0949 µM): 49%
viability, T/C (second compound 0.3 µM, first compound 0.3 µM): 30.5%
viability, T/C (second compound 0.3 µM, first compound 0.949 µM): 17%
viability, T/C (second compound 0.3 µM, first compound 3 µM): 14%
viability, T/C (second compound 0.949 µM, first compound 0.00949 µM): 88.5%
viability, T/C (second compound 0.949 µM, first compound 0.03 µM): 64%
viability, T/C (second compound 0.949 µM, first compound 0.0949 µM): 44.1%
viability, T/C (second compound 0.949 µM, first compound 0.3 µM): 32.8%
viability, T/C (second compound 0.949 µM, first compound 0.949 µM): 15.7%
viability, T/C (second compound 0.949 µM, first compound 3 µM): 16.8%
viability, T/C (second compound 3 µM, first compound 0.00949 µM): 73.8%
viability, T/C (second compound 3 µM, first compound 0.03 µM): 66.9%
viability, T/C (second compound 3 µM, first compound 0.0949 µM): 50.1%
viability, T/C (second compound 3 µM, first compound 0.3 µM): 30.7%
viability, T/C (second compound 3 µM, first compound 0.949 µM): 24.6%
viability, T/C (second compound 3 µM, first compound 3 µM): 15.5%
viability, T/C (second compound 9.49 µM, first compound 0.00949 µM): 84.2%
viability, T/C (second compound 9.49 µM, first compound 0.03 µM): 85.3%
viability, T/C (second compound 9.49 µM, first compound 0.0949 µM): 53.8%
viability, T/C (second compound 9.49 µM, first compound 0.3 µM): 36.2%
viability, T/C (second compound 9.49 µM, first compound 0.949 µM): 23.4%
viability, T/C (second compound 9.49 µM, first compound 3 µM): 17%
viability, T/C (second compound 30 µM, first compound 0.00949 µM): 101%
viability, T/C (second compound 30 µM, first compound 0.03 µM): 79%
viability, T/C (second compound 30 µM, first compound 0.0949 µM): 68.7%
viability, T/C (second compound 30 µM, first compound 0.3 µM): 32.2%
viability, T/C (second compound 30 µM, first compound 0.949 µM): 21%
viability, T/C (second compound 30 µM, first compound 3 µM): 21.4%
